From patent US20260232666A1, “COMPOSITIONS AND METHODS FOR INHIBITION OF RAS” (TheRas, Inc., priority 2023, published 2026)

The compounds below were run against T1, Avi-KRAS G12C (1-169) GppNHp/RAF1 RBD-3×FLAG (52-151) (Homo sapiens, UniProt P01116, G12C) (assay: Raf1 RBD-KRAS G12C-GppNHp disruption assay (protein:protein interaction HTRF)).
T1 construct: Avi-KRAS G12C (1-169) GppNHp; Avi (N)
Format: biochemical
How it was run: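 HTRF measuring RAF1 RBD binding to GppNHp-loaded KRAS G12C (50 nM) in Tris pH 7.5, 100 mM NaCl, 5 mM MgCl2, 10% DMSO. Compound, KRAS, RBD and detection reagents each added sequentially with 1 h room-temperature incubations; 10-point titration; excitation 320 nm, emission 615 nm; activity as % of DMSO; IC50 derived.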

T1 sequence (P01116 1-169 isoform P01116-2 G12C limits assumed): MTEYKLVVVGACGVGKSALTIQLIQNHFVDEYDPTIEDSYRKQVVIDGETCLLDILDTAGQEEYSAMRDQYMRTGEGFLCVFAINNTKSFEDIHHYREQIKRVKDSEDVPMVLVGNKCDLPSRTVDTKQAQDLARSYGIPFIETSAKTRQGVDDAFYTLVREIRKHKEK

Row | SMILES | IC50 [nM]
1 | C=CC(=O)N1CC[C@@H](N(C)c2nc(OC[C@@]34CCCN3C[C@H](F)C4)nc3cc(-c4ccc(F)c5sc(N)c(C#N)c45)c(C#N)cc23)[C@@H]1CC [Compound 24] | < 500
2 | C=CC(=O)N1CC[C@@H](N(CC)c2nc(OC[C@@]34CCCN3C[C@H](F)C4)nc3cc(-c4ccc(F)c5sc(N)c(C#N)c45)c(C#N)cc23)[C@H]1C [Compound 25] | < 500
3 | C=CC(=O)N1CC[C@@H](N(C)c2nc(OC[C@@]34CCCN3C[C@H](F)C4)nc3cc(-c4ccc(F)c5sc(N)c(C#N)c45)c(C#N)cc23)[C@@H]1C [Compound 27] | < 500
4 | C=CC(=O)N1CC[C@@H](N(C)c2nc(OC[C@@]34CCCN3C[C@H](F)C4)nc3cc(-c4ccc(F)c5sc(N)c(C#N)c45)c(F)cc23)[C@H]1CC [Compound 29] | < 500
5 | C=CC(=O)N1CC[C@@H](N(C)c2nc(OC[C@@H]3CCCN3CC)nc3c(F)c(-c4ccc(F)c5sc(N)c(C#N)c45)c(C(F)(F)F)cc23)[C@@H]1C [Compound 30] | < 500
6 | C=CC(=O)N1CC[C@@H](N(C)c2nc(OC[C@@]34CCCN3C[C@H](F)C4)nc3cc(-c4ccc(F)c5sc(N)c(C#N)c45)c(F)cc23)[C@@H]1C [Compound 31] | < 500
7 | C=CC(=O)N1CC[C@@H](N(C)c2nc(OC[C@@H]3C[C@@H](F)CN3C)nc3c(F)c(-c4ccc(F)c5sc(N)c(C#N)c45)c(C(F)(F)F)cc23)[C@@H]1C [Compound 32] | < 500
8 | C=CC(=O)N1CC[C@@H](N(C)c2nc(OC[C@@H]3C[C@@H](OC)CN3C)nc3c(F)c(-c4ccc(F)c5sc(N)c(C#N)c45)c(C(F)(F)F)cc23)[C@@H]1C [Compound 33] | < 500
9 | C=CC(=O)N1C2CCC1CN(c1nc(OC[C@@]34CCCN3C[C@H](F)C4)nc3c(F)c(-c4ccc(F)c5sc(N)c(C#N)c45)c(C(F)(F)F)cc13)C2 [Compound 34] | < 500
10 | C=CC(=O)N1C2CC1CN(c1nc(OC[C@@]34CCCN3C[C@H](F)C4)nc3c(F)c(-c4ccc(F)c5sc(N)c(C#N)c45)c(C(F)(F)F)cc13)C2 [Compound 35] | < 500
11 | C=CC(=O)N1C[C@H]2CC[C@@H]1CN2c1nc(OC[C@@]23CCCN2C[C@H](F)C3)nc2c(F)c(-c3ccc(F)c4sc(N)c(C#N)c34)c(C(F)(F)F)cc12 [Compound 36] | 500 to 5000
12 | C=CC(=O)N1CC[C@@H](N(C)c2nc(OC[C@@H]3C[C@@H](OC)CN3CC)nc3c(F)c(-c4ccc(F)c5sc(N)c(C#N)c45)c(C(F)(F)F)cc23)[C@@H]1C [Compound 101] | < 500
13 | C=CC(=O)N1CC[C@@H](N(C)c2nc(OC[C@@H]3C[C@@H](OC)CN3CC)nc3c(F)c(-c4ccc(F)c5sc(N)c(C#N)c45)c(C(F)(F)F)cc23)[C@H]1C [Compound 104] | < 500
14 | C=CC(=O)N1CC[C@@H](N(C)c2nc(OC[C@@H]3C[C@@H](F)CN3CC)nc3c(F)c(-c4ccc(F)c5sc(N)c(C#N)c45)c(Cl)cc23)[C@@H]1C [Compound 105] | < 500
15 | C=CC(=O)N1CCN(c2nc(OC[C@@]34CCCN3C[C@H](F)C4)nc3c(F)c(-c4ccc(F)c5sc(N)c(C#N)c45)c(C(F)(F)F)cc23)C2CC21 (stereo partly shown) [Compound 106] | < 500
16 | C=CC(=O)N1CC[C@@H](N(C)c2nc(OC[C@@H]3C[C@@H](F)CN3CC)nc3c(F)c(-c4ccc(F)c5sc(N)c(C#N)c45)c(C(F)(F)F)cc23)[C@H]1C [Compound 107] | < 500
17 | C=CC(=O)N1C[C@H](N(C)c2nc(OC[C@@]34CCCN3C[C@H](F)C4)nc3c(F)c(-c4ccc(F)c5sc(N)c(C#N)c45)c(C(F)(F)F)cc23)C[C@@H]1C [Compound 108] | < 500
18 | C=CC(=O)N1C[C@H](N(C)c2nc(OC[C@@]34CCCN3C[C@H](F)C4)nc3cc(-c4ccc(F)c5sc(N)c(C#N)c45)c(F)cc23)C[C@@H]1C [Compound 109] | < 500
19 | C=CC(=O)N1CC[C@@H](N(C)c2nc(OC[C@@]34CCCN3C[C@H](F)C4)nc3cc(-c4nc(N)cc(C)c4C(F)(F)F)c(F)cc23)[C@H]1C [Compound 110] | < 500
20 | C=CC(=O)N1CC[C@@H](N(C)c2nc(OC[C@@H]3CC4(CC4)CN3C)nc3c(F)c(-c4ccc(F)c5sc(N)c(C#N)c45)c(C(F)(F)F)cc23)[C@@H]1C [Compound 112] | 500 to 5000
21 | C=CC(=O)N1CC[C@@H](N(C)c2nc(OC[C@@]34CCCN3C[C@H](F)C4)nc3c(F)c(-c4nc(N)cc(C)c4C(F)(F)F)ccc23)[C@H]1C [Compound 115] | < 500
22 | C=CC(=O)N1CC[C@@H](N(C)c2nc(OC[C@@H]3CCCN3C)nc3c(F)c(-c4nc(N)cc(C)c4C(F)(F)F)c(C(F)(F)F)cc23)[C@H]1C [Compound 122] | < 500
23 | C=CC(=O)N1C[C@@H](C)N(c2nc(OC[C@@]34CCCN3C[C@H](F)C4)nc3c(F)c(-c4ccc(F)c5sc(N)c(C#N)c45)c(C(F)(F)F)cc23)C[C@@H]1C [Compound 124] | < 500
24 | C=CC(=O)N1CC[C@@H](N(CC)c2nc(OC[C@@H]3CCCN3C)nc3cc(-c4ccc(F)c5sc(N)c(C#N)c45)c(F)cc23)[C@H]1C [Compound 138] | < 500
25 | C=CC(=O)N1CC[C@@H](N(CC)c2nc(OC[C@@H]3C[C@@H](F)CN3C)nc3cc(-c4ccc(F)c5sc(N)c(C#N)c45)c(F)cc23)[C@H]1C [Compound 139] | < 500
26 | C=CC(=O)N1CC[C@@H](N(CC)c2nc(OC[C@@H]3C[C@@H](OC)CN3C)nc3cc(-c4ccc(F)c5sc(N)c(C#N)c45)c(F)cc23)[C@H]1C [Compound 140] | < 500
27 | C=CC(=O)N1CC[C@@H](N(CC)c2nc(OC[C@@H]3CCCN3C)nc3c(F)c(-c4ccc(F)c5sc(N)c(C#N)c45)ccc23)[C@H]1C [Compound 141] | < 500
28 | C=CC(=O)N1CC[C@@H](N(CC)c2nc(OC[C@@H]3C[C@@H](F)CN3C)nc3c(F)c(-c4ccc(F)c5sc(N)c(C#N)c45)ccc23)[C@H]1C [Compound 142] | < 500
29 | C=CC(=O)N1CC[C@@H](N(C)c2nc(OC[C@@H]3C[C@@H](F)CN3CC)nc3c(F)c(-c4ccc(F)c5sc(N)c(C#N)c45)c(C(F)(F)F)cc23)[C@@H]1C [Compound 144] | < 500

The remaining lines, values ahead:

Row | IC50 [nM] | SMILES
30 | < 500 | C=CC(=O)N1CC[C@@H](N(C)c2nc(OC[C@@H]3C[C@@H](F)CN3C)nc3c(F)c(-c4nc(N)cc(C)c4C(F)(F)F)c(C(F)(F)F)cc23)[C@H]1C [Compound 145]
31 | < 500 | C=CC(=O)N1C[C@H](N(C)c2nc(OC[C@@H]3CCCN3C)nc3c(F)c(-c4ccc(F)c5sc(N)c(C#N)c45)c(C(F)(F)F)cc23)C[C@H]1C [Compound 147]
32 | < 500 | C=CC(=O)N1C[C@H](N(C)c2nc(OC[C@@]34CCCN3C[C@H](F)C4)nc3cc(-c4ccc(F)c5sc(N)c(C#N)c45)c(F)cc23)C[C@H]1C [Compound 148]
33 | < 500 | C=CC(=O)N1CC[C@@H](N(CC)c2nc(OC[C@@]34CCCN3C[C@H](OC)C4)nc3cc(-c4ccc(F)c5sc(N)c(C#N)c45)c(F)cc23)[C@H]1C [Compound 149]
34 | < 500 | C=CC(=O)N1CC[C@@H](N(CC)c2nc(OC[C@@]34CCCN3C[C@H](OC)C4)nc3c(F)c(-c4ccc(F)c5sc(N)c(C#N)c45)c(C(F)(F)F)cc23)[C@H]1C [Compound 150]
35 | < 500 | C=CC(=O)N1CC[C@@H](N(C)c2nc(OC[C@@]34CCCN3C[C@H](OC)C4)nc3c(F)c(-c4ccc(F)c5sc(N)c(C#N)c45)c(C(F)(F)F)cc23)[C@H]1C [Compound 151]
36 | < 500 | C=CC(=O)N1C[C@H](N(C)c2nc(OC[C@@H]3CCCN3C)nc3c(F)c(-c4ccc(F)c5sc(N)c(C#N)c45)c(C(F)(F)F)cc23)C[C@@H]1C [Compound 153]
37 | < 500 | C=CC(=O)N1CC[C@@H](N(CC)c2nc(OC[C@@H]3CCCN3C)nc3c(F)c(-c4nc(N)cc(C)c4C(F)(F)F)c(C(F)(F)F)cc23)[C@H]1C [Compound 155]
38 | < 500 | C=CC(=O)N1CC[C@@H](N(C)c2nc(OC[C@]34CCCN3C[C@H](OC)C4)nc3c(F)c(-c4ccc(F)c5sc(N)c(C#N)c45)c(C(F)(F)F)cc23)[C@H]1C [Compound 156]
39 | < 500 | C=CC(=O)N1CC[C@@H](N(CC)c2nc(OC[C@]34CCCN3C[C@H](OC)C4)nc3c(F)c(-c4ccc(F)c5sc(N)c(C#N)c45)c(C(F)(F)F)cc23)[C@H]1C [Compound 158]
40 | < 500 | C=CC(=O)N1CC[C@@H](N(CC)c2nc(OC[C@]34CCCN3C[C@H](F)C4)nc3c(F)c(-c4ccc(F)c5sc(N)c(C#N)c45)c(C(F)(F)F)cc23)[C@H]1C [Compound 159]
41 | < 500 | C=CC(=O)N1CC[C@@H](N(C)c2nc(OC[C@]34CCCN3C[C@H](OC)C4)nc3c(F)c(-c4ccc(F)c5sc(N)c(C#N)c45)c(Cl)cc23)[C@H]1C [Compound 161]
42 | < 500 | C=CC(=O)N1CC[C@@H](N(CC)c2nc(OC[C@@]34CCCN3C[C@H](OC)C4)nc3c(F)c(-c4ccc(F)c5sc(N)c(C#N)c45)c(Cl)cc23)[C@H]1C [Compound 163]
43 | < 500 | C=CC(=O)N1CC[C@@H](N(CC)c2nc(OC[C@]34CCCN3C[C@H](OC)C4)nc3c(F)c(-c4ccc(F)c5sc(N)c(C#N)c45)c(Cl)cc23)[C@H]1C [Compound 164]
44 | < 500 | C=CC(=O)N1CC[C@@H](N(CC)c2nc(OC[C@]34CCCN3C[C@H](F)C4)nc3c(F)c(-c4ccc(F)c5sc(N)c(C#N)c45)c(Cl)cc23)[C@H]1C [Compound 165]
45 | < 500 | C=CC(=O)N1CC[C@@H](N(CC)c2nc(OC[C@]34CCCN3C[C@H](F)C4)nc3cc(-c4ccc(F)c5sc(N)c(C#N)c45)c(F)cc23)[C@H]1C [Compound 167]
46 | < 500 | C=CC(=O)N1CC[C@@H](N(CC)c2nc(OC[C@]34CCCN3C[C@H](OC)C4)nc3c(F)c(-c4ccc(F)c5sc(N)c(C#N)c45)ccc23)[C@H]1C [Compound 169]
